Test results: patent publication US7749728B2, “Method and system for measuring the penetration of drugs and other substances into tissue” (Cabenda Pharmaceutical Research Limited, priority 2003, dated 2010)

Columns and labels:
HCT-116 MCCs [1] = assay: Fluorescence based evaluation of anthracycline penetration in MCCs; assay type: cell-based, human; conditions: immediately after 1-h, 10 µM drug exposure
Experimental: MCCs 16 were exposed to anthracyclines from one exposed side 18 using a polyarcylate apparatus 22 (FIG. 2) designed such that the bottom of each insert 10 is clamped against a flat block 24 of apparatus 22 with a layer of Parafilm (American National Can, Chicago, Ill., USA) sandwiched in between to ensure a complete seal. Each MCC 16 was exposed to a 7.5 ml stirred reservoir 28 kept under controlled gassing and temperature. A silicone O-ring 34 was used to seal the gap between the MCC 16 and the orifice in the reservoir 28. […] After 1-hour drug exposure, the reservoirs 28 were rinsed twice with fresh media. […]
The imaging system consisted of a flurouresence microscope (Zeiss III RS, Oberkochen, Germany), a cooled, monochrome CCD video camera (model 4922, Cohu, San Diego, Calif., USA), frame grabber (Scion, Frederick, Md., USA), a custom built motorized x-y stage and customized NIH-Image software (public domain program developed at the U.S. National Institutes of Health) running on a G4 Macintosh computer. […] For drug fluorescence visualization, MCCs were imaged using unmounted cryosections 1-hour after sectioning using a 510-555 nm excitation filter and a 575-640 nm emission filter.
Using the NIH-Image software application and user supplied algorithms, digital images of BrdUrd staining and drug fluorescence within MCC cryosections were analyzed in the following manner. […]

cells = conditions: uptake rate vs DOX; cited from earlier work
[2] = weak bases; cited from earlier work
HCT-116 MCCs [3] = assay: MCC penetration assay, effect-based (BrdUrd S-phase labeling after exposure from one side); assay type: cell-based, human; conditions: for decrease in drug exposure seen by cells on the far side relative to the near side / trend of BrdUrd labeling with drug concentration: 1 day after 1-h exposure; for decrease in drug exposure seen by cells on the far side relative to the near side: near-side concentration matching the effect of 10 μM on the far side; for trend of BrdUrd labeling with drug concentration: first 30 μm of tissue
Experimental: Standard tissue culture inserts 10 (CM 12 mm, pore size 0.4 μm, Millipore, Nepean, ON, Canada) were coated with 150 μl collagen (rat tail type I, Sigma), dissolved in 0.01 M HCl and diluted 1:4 with 60% Ethanol to 0.75 mg/ml, and allowed to dry over night. HCT-116, 0.75×10^6 in 0.5 ml growth media, were then added to the inserts 10 and incubated for 15 hours to allow the cells to attach. The cultures 16 were then incubated for 2 days in custom built growth vessels 21 (FIG. 1(b)) to form multilayered cell cultures (MCCs) 16 which are ˜150 μm in thickness. Each growth vessel 21 includes a frame 23 that held the inserts 10 completely immersed in 130 ml of stirred media (700 rpm, 25 mm stir bar) under continual gassing (5% CO2, balance air) at 37° C. The MCCs 16 were grown in batches of 8 cultures of which 6 were treated with drug and 2 were kept as untreated controls.
MCCs 16 were exposed to anthracyclines from one exposed side 18 using a polyarcylate apparatus 22 (FIG. 2) designed such that the bottom of each insert 10 is clamped against a flat block 24 of apparatus 22 with a layer of Parafilm (American National Can, Chicago, Ill., USA) sandwiched in between to ensure a complete seal. Each MCC 16 was exposed to a 7.5 ml stirred reservoir 28 kept under controlled gassing and temperature. A silicone O-ring 34 was used to seal the gap between the MCC 16 and the orifice in the reservoir 28. Once placed in the apparatus 22, MCCs 16 were allowed to equilibrate for 45 minutes, drug was then added to the growth medium at concentrations of 0.3, 1, 3 and 10 μM. After 1-hour drug exposure, the reservoirs 28 were rinsed twice with fresh media. MCCs 16 were then incubated for a second hour prior to removal from the apparatus 22 to allow initial drug wash out from the exposed side 18 only. MCCs 16 were then removed, rinsed in fresh media three times for 15 seconds and placed in a growth vessel 21 containing 2 untreated control MCCs 16. Media was replaced at 1 and 4 hours following return to the growth vessel 21, to reduce residual drug levels. Incubation with control MCCs 16 ruled out the possibility that drug wash out into the media from the exposed sides 18 of the MCCs 16 was affecting results. MCCs 16 were left for 1 or 3 days from the time of beginning drug exposure to allow manifestation of drug effect. Following this, 100 μM BrdUrd (5-bromo-2-deoxyuridine, Sigma Chemical, Oakville, ON, Canada) was added to the media and cultures incubated for 4 hours to label S-phase cells. MCCs 16 were then removed, frozen in O.C.T. medium (Tissue-TEK, Torrance, Calif., USA) and stored at −80° C. until sectioning.
MCC cryosections (10 μm) were air dried for 24 hours and then fixed in a 1:1 mixture of acetone-methanol for 10 minutes at room temperature. Slides were immediately transferred to distilled water for 10 minutes and then treated with 2 M HCl at room temperature for 1 hour followed by neutralization for 5 minutes in 0.1 M Sodium Borate. Slides were then washed in distilled water and transferred to a PBS (phosphate buffered saline) bath. Subsequent steps were each followed by a 5 minute wash in PBS. BrdUrd incorporated into DNA was detected using a 1:200 dilution of monoclonal mouse anti-BrdUrd (clone BU33, Sigma) followed by 1:100 dilution of anti-mouse peroxidase conjugate antibody (Sigma) and 1:10 dilution of metal enhanced DAB substrate (Pierce, Rockford, Ill.). Slides were then counterstained with haematoxylin, dehydrated and mounted using Permount (Fisher Scientific, Fair Lawn, N.J., USA).
The imaging system consisted of a flurouresence microscope (Zeiss III RS, Oberkochen, Germany), a cooled, monochrome CCD video camera (model 4922, Cohu, San Diego, Calif., USA), frame grabber (Scion, Frederick, Md., USA), a custom built motorized x-y stage and customized NIH-Image software (public domain program developed at the U.S. National Institutes of Health) running on a G4 Macintosh computer. […]

[4] = system: V79 multicellular spheroids; conditions: ~3.5 μM×h exposure, 24 hours in drug free medium before disaggregation; cited from earlier work
[5] = system: multi-layered cell culture; assay: Example 1: BrdUrd labeling in multi-layered cell culture exposed from one side; assay type: cell-based; conditions: one hour exposure from one side, 24 hours in fresh media; 5, 10 and 100 μM
Experimental: FIGS. 5 and 6 illustrate test results relating to a multi-layered cell culture 16 exposed to the anthracycline doxorubicin (DOX) (i.e. the test material). Cultures 16 were exposed to doxorubicin (at differing concentrations) from one side 18 only for one hour and then incubated for 24 hours in fresh media. Cultures 16 were then exposed to bromodeoxyuridine (BrdUrd) for two hours to label proliferating cells. BrdUrd is a thymidine analogue that is incorporated into DNA during the S phase of the cell cycle and is therefore an effective marker of cellular proliferation. Following BrdUrd exposure, cultures 16 were frozen and cyrosections taken from them. Cryosections were then immunostained to detect BrdUrd labeled S-phase cells. FIG. 6 illustrates the distribution of BrdUrd-labelled cells as a function of position within the cultures. The results clearly indicate that tissue penetration limits doxorubicin effectiveness.

Structure (SMILES) | fluorescence level on the near side relative to DOX (HCT-116 MCCs [1]) [times] | rate of entering cells relative to DOX (cells) | pKa [2] | decrease in drug exposure seen by cells on the far side relative to the near side (HCT-116 MCCs [3]) | trend of BrdUrd labeling with drug concentration (HCT-116 MCCs [3]) | surviving fraction, 130 μm into the tissue [4] | surviving fraction, exposed outer layers [4] | effect on proliferating cells as a function of position within the culture [5] | concentration at which an equal effect is exerted on either edge of the MCC (HCT-116 MCCs [3]; 1 hour exposure at 0.3, 1, 3 and 10 μM, 1 day incubation) [µM]
COc1cccc2c1C(=O)c1c(O)c3c(c(O)c1C2=O)C[C@@](O)(C(C)=O)C[C@@H]3O[C@H]1C[C@H](N)[C@H](O)[C@H](C)O1 [DAU, daunorubicin] | ~7 | 3-10 times | ~8.3 | ~30 fold | decreasing labeling with increasing drug concentration | – | – | – | –
COc1cccc2c1C(=O)c1c(O)c3c(c(O)c1C2=O)C[C@@](O)(C(=O)CO)C[C@@H]3O[C@H]1C[C@H](N)[C@H](O)[C@H](C)O1 [DOX, doxorubicin] | – | – | ~8.3 | ~12 fold | decreasing labeling with increasing drug concentration | ~0.6 | ~0.2 | at low concentrations doxorubicin only affects cells close to the site of exposure | –
COc1cccc2c1C(=O)c1c(O)c3c(c(O)c1C2=O)C[C@@](O)(C(=O)CO)C[C@@H]3O[C@H]1C[C@H](N)[C@@H](O)[C@H](C)O1 [EPI, epirubicin] | ~1.5 | approximately twice | ~8.1 | ~10 fold | decreasing labeling with increasing drug concentration | – | – | – | 10
O=C1c2c(O)ccc(O)c2C(=O)c2c(NCCNCCO)ccc(NCCNCCO)c21 [MIT, mitoxantrone] | – | – | ~8.3 | greater than 30 fold | increase in labeling on the near side with increasing drug concentration | – | – | – | –
